# Read-outs that look alike come from different tables or passages of the source.
# Key:
# [1] = target: T1, FAK Tyr-397 phosphorylation (Mus musculus, UniProt P34152); test: Anti-phospho-specific immunoblotting of FAK pY397 in 4T1 cells; type: cell-based, murine
# T1 construct: endogenous in cells; host or cells: 4T1 murine mammary carcinoma cells
# Description: (§1) Immunoblotting: Protein extracts of cells were made using lysis buffer containing 1% Triton X-100, 1% sodium deoxycholate, and 0.1% SDS and were separated by 4-12% SDS-PAGE (sodium dodecyl sulfate polyacrylamide gel electrophoresis) and sequential immunoblotting performed as described in Mitra S K, Lim S T, Chi A, Schlaepfer D D. Intrinsic focal adhesion kinase activity controls orthotopic breast carcinoma metastasis via the regulation of urokinase plasminogen activator expression in a syngeneic tumor model. Oncogene 2006; 25:4429-40. Relative expression levels and phospho-specific antibody reactivity were measured by densitometry analyses of blots using Image J (version 1.42q). Inhibition of FAK and p130Cas tyrosine phosphorylation was quantified by calculating the ratio of pY397 FAK protein to total FAK. Similar analyses were performed for p130Cas using pY410 p130Cas and total p130Cas blot data.
# [2] = tested on: p130Cas tyrosine phosphorylation (pY249, pY410); test: Phospho-specific immunoblotting of p130Cas in 4T1 cells; type: cell-based, murine
# Description: as §1
# 4T1 cells [3] = test: Millicell chamber motility assay (fibronectin, serum chemotaxis); type: cell-based, murine; details: Mus musculus, 4 h, read-out: maximal inhibition of cell movement
# Description: Cell migration assays: Serum-stimulated chemotaxis using Millicell (12 mm diameter with 8 μm pores; Millipore) chambers were performed as described previously^49. Both sides of membrane were coated with fibronectin (10 μg/ml) and chemotaxis was stimulated by addition of 10% FBS to the lower chamber. Data points represent cell counts (9 fields) from three migration chambers from at least two independent experiments. For scratch-wound closure motility assays, cells were seeded onto fibronectin-coated (10 μg/ml) glass bottom 12 well plates (MatTek) and serum starved (0.5% FBS) for 16 h. Cells were wounded with a pipette tip, washed with phosphate-buffered salin (PBS), and replenished with 10% FBS media with or without FAK inhibitor (1 μM). Time-lapse series was obtained by acquiring images at 10 min intervals for up to 22 h, at 37° C. with humidity and CO2 regulation using a 10× objective on an automated stage (Olympus IX81). Cell trajectories and distance traveled were measured by tracking nucleus position over time using Image J.
# 4T1 cells [4] = test: Adherent and suspended (non-adherent) cell growth, cell numbers; type: cell-based, murine
# Description: Anchorage-dependent, spheroid, and soft agar cell growth assays: Cells (2×10^5) were plated per 35 mm well under adherent (tissue culture-treated) and non-adherent conditions (poly-HEMA-coated) in 6-well plates (Costar) in growth media. Between 24 and 168 h, all cells were collected, a single cell suspension was prepared by limited trypsin-EDTA treatment, and viable cells were enumerated by trypan blue staining and counting (ViCell XR, Beckman). For spheroid area determination, cells were imaged after 72 h in phase contrast using an Olympus IX51 microscope. Area was calculated using Image J software (version 1.43). For soft agar assays, 48-well plates were coated with a 1:4 mix of 2% agar (EM Science) in 0.2 ml growth media (bottom layer). 5×10^4 cells were plated per well (in triplicate) in a mixture of 0.3% agar in 0.2 ml growth media (top layer). […] After 10 days, colonies were imaged in phase contrast, enumerated by counting 9 fields (3 fields per well), and total area determined using Image J. For all analyses, experimental points were performed in triplicate and were experiments were repeated at least two times.
# 4T1 cells [5] = test: Annexin V binding by flow cytometry; type: cell-based, murine; details: 24 h
# Description: Cell pellets were resuspended in 300 p. 1 of PBS containing propidium iodide (PI) (10 μg/ml), DNAse-free RNAse (100 μg/ml, Qiagen), and then incubated at 37° C. with agitation for 1 h. Samples were analyzed by flow cytometry (FACSCalibur, Becton-Dickinson) and cell cycle analyses were performed by ModFit LT3.2 software (Verity software house). Hypodiploid DNA content as a measure of cell apoptosis was detected by PI staining as described ^29. […] Quadrant gates were positioned based on cell autofluorescence (negative) staurosporine-treated (positive) controls. Apoptosis was calculated to be the percent of annexin V-positive cells. In the soft agar assays, apoptosis was quantified by visual inspection of at least 200 cells and was defined as the appearance of membrane blebbing or cell shrinkage. Apoptosis was also detected by appearance of cleaved caspase-3 antibody reactivity in protein lysates by immunoblotting.
# [6] = Pharmacodynamic (PD) evaluation in subcutaneous 4T1 tumors, single i.p. injection; type: in vivo, Balb/c mice; details: Balb/c, mouse, intraperitoneal, 100 mg/kg i.p., 12 h
# MDA-MB-231 cells = test: Apoptosis assay of suspended cells (annexin V, flow cytometry); type: cell-based, human; details: up to 10 μM, within 6 h
# Description: Quadrant gates were positioned based on cell autofluorescence (negative) staurosporine-treated (positive) controls. Apoptosis was calculated to be the percent of annexin V-positive cells.
# Solubility in water = type: physicochemical; details: HCl salt
# Description: 10, 2008, and published as WO 2008/115369.
# 4T1 tumors = test: Orthotopic 4T1 breast carcinoma model (breast fat pad)
# Description: Immunohistochemistry: For the detection of apoptosis, sections (7 μm) were analyzed using a terminal deoxynucleotidyl transferase dUTP nick end labeling (TUNEL) kit (Roche). For CD45 staining, sections (7 μm) were fixed in 4% paraformaldehyde, rinsed in PBS, and blocked with a solution of PBS containing 5% BSA, 1% goat serum and 0.1% Triton X. FITC-conjugated anti-CD45 antibodies (Invitrogen) at 1 μg/ml in 5% BSA and PBS were incubated for 2 hours. FITC-conjugated IgG2b isotype antibodies (Invitrogen) at the same concentration were used as a negative control. […] Images were sequentially captured at 40× (UPLFL objective, 1.3 NA; Olympus) using a monochrome charge-coupled camera (ORCA ER; Hamamatsu), an inverted microscope (IX51; Olympus), and Slidebook software (v5.0, Intelligent Imaging). Images were pseudo-colored, overlaid, and merged using Photoshop CS3 (Adobe). Fluorescence quantitation was performed using Image J (v1.43).
# Orthotopic breast cancer models: One million 4T1 or MDA-MB-231 cells in 10 μl PBS were injected into the T4 mammary fat pad of 8-10 week old mice using a Hamilton syringe. […] Tumors were measured every 3-4 days with digital vernier calipers and tumor volume (mm^3) was calculated using the formula: V=axb^2/2 (a=length, mm; b=width, m) Body weight was measured weekly to assess toxicity. Lungs, spleen, and primary tumors were surgically removed and weighed.
# For 4T1 tumor metastasis analyses, lungs were rinsed in PBS, dorsal and ventral fluorescent images acquired using the OV100 Small Animal Imaging System (Olympus). For all images, a common threshold for mCherry fluorescence was set and lung metastatic burden was calculated by determining the average integrated pixel density for micro-tumors present in each lung using Image J software. Metastatic tumor burden (number of metastatic lesion or mean pixel volume) was determined and groups (Negligible, Moderate, and High) were separated based upon numbers distribution. After imaging, lungs were fixed in Bouin's solution (Sigma), paraffin embedded, sectioned, and stained with hematoxylin and eosin (H&E) for histological evaluation. Images were acquired using a differential interference contrast-equipped Olympus IX81 inverted microscope and an Olympus DP71 digital color camera using Slidebook (v5.0) software. […] Lungs were resected, embedded in OCT, and frozen in liquid nitrogen.
# [7] = 0.5 mg/ml ad libitum in drinking water
# [8] = 150 mg/kg p.o. b.i.d. vs vehicle
# [9] = 150 mg/kg p.o., b.i.d., 15 days
# [10] = oral, 4T1 and MDA-MB-231 orthotopic models
# T1 sequence (P34152 whole entry): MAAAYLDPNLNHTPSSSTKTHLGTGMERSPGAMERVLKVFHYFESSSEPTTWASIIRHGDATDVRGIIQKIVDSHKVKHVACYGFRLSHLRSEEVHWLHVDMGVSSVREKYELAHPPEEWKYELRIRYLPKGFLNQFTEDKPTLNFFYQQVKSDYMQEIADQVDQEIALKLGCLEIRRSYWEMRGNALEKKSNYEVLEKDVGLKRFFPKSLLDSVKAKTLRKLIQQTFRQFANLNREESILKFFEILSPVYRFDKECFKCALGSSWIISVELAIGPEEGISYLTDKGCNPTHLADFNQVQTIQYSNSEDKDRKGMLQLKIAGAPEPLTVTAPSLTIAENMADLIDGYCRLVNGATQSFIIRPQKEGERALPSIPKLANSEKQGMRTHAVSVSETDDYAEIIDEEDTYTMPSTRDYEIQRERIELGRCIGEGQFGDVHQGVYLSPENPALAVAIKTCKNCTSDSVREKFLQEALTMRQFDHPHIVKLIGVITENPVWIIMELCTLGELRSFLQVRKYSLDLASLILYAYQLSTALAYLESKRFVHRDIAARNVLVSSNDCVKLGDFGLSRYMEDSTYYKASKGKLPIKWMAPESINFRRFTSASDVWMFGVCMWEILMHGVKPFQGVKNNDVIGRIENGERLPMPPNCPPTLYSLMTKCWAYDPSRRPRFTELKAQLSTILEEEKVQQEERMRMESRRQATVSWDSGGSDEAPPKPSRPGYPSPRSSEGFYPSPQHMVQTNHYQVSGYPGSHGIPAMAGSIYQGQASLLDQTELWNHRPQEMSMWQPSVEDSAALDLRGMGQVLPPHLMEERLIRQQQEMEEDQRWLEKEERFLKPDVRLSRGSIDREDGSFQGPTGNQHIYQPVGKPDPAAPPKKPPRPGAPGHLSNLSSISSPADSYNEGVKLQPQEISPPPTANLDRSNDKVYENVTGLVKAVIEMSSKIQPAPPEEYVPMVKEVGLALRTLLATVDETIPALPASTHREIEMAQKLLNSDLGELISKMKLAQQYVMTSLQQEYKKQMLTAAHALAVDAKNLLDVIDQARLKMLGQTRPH
structure (smiles),measurement,setting,value
CNC(=O)c1ccccc1Nc1cc(Nc2ccc(N3CCOCC3)cc2OC)ncc1C(F)(F)F [PND-1186],FAK pY397 phosphorylation in 4T1 spheroids,"[1]; 0.1 μM, 3D spheroids",potently inhibited
same,"FAK pY397 phosphorylation, adherent and suspended cells","[1]; 0.1 μM, 24 h",sufficient to inhibit FAK pY397 phosphorylation
same,maximal reduction of FAK pY397 phosphorylation,"[1]; 4T1 cells, 0.1 to 1.0 μM, 1 h",~80%
same,p130Cas pY249 phosphorylation in 4T1 spheroids,"[2]; 0.1 μM, 3D spheroids",potently inhibited
same,p130Cas pY410 phosphorylation in 4T1 spheroids,"[2]; 0.1 μM, 3D spheroids",potently inhibited
same,p130Cas pY249 phosphorylation,"[2]; adherent 4T1 cells, 1 h, PND-1186 to 1 μM",did not affect
same,inhibition at 0.4 µM,4T1 cells [3],50 to 60%
same,"reduction of cell number, suspended cells","4T1 cells [4]; 0.1 μM, 72 h, vs DMSO",significant (p<0.001)
same,"cell proliferation, FAK-Cas phosphorylation and cell death","4T1 cells [4]; 100 nM, colonies in soft agar or non-adherent conditions","inhibited cell proliferation, FAK-Cas phosphorylation, and induced cell death"
same,"total cell number, adherent cells","4T1 cells [4]; 1.0 μM, 72 h",decreased in number
same,"total cell number, adherent cells","4T1 cells [4]; 0.1 to 1.0 μM, 24 or 48 h",no differences were observed
same,"total cell number, suspended cells","4T1 cells [4]; all concentrations (0.1 to 1.0 μM), 48 h",reduced cell numbers
same,cytotoxicity to cells in culture,4T1 cells [4]; cells in culture,non-cytotoxic
same,"annexin V positive staining, suspended cells",4T1 cells [5]; 0.1 to 0.4 μM,50-60%
same,"annexin V-positive cells, adherent conditions",4T1 cells [5]; up to 1.0 μM,did not increase
same,concentration at 12 h,"[6]; plasma, read-out: average concentration in plasma at 12 h",15.1 µM
same,concentration at 12 h,"[6]; tumor, read-out: average concentration in tumors at 12 h",10400 ng/g
same,MDA-MB-231 apoptosis in suspension,MDA-MB-231 cells,did not promote increased MDA-MB-231 apoptosis
same,solubility,Solubility in water,22 mg/mL
same,average concentration in plasma,4T1 tumors; [7],1.0 µM
same,average concentration in tumors,4T1 tumors; [7],0.52 µg/g
same,tumor growth and tumoral FAK-p130Cas phosphorylation,4T1 tumors; [7],significantly decreased tumor growth and tumoral FAK-p130Cas phosphorylation
same,decrease in CD45 tumor-associated staining,4T1 tumors; 150 mg/kg,2.8 fold
same,tumor vasculature (anti-CD31 staining),4T1 tumors; 150 mg/kg p.o. b.i.d.,no major vascular differences
same,increase of TUNEL staining in breast fat pad tumors,4T1 tumors; [8],2.8 fold
same,tumor volume by Day 7,4T1 tumors; [8],significantly reduced tumor volume
same,reduction of final tumor weight,"4T1 tumors; 150 mg/kg p.o. b.i.d., 16 days",3.1 fold
same,total body weight,"4T1 tumors; 150 mg/kg p.o. b.i.d., 16 days",without affects on total body weight
same,orthotopic and syngeneic breast carcinoma tumor growth and spontaneous metastasis to lungs,4T1 tumors; 150 mg/kg p.o. bid,significantly inhibited
same,lung metastases by H&E staining of lung sections,4T1 tumors; [9],detectable 4T1 lung metastases in control but not PND-1186-treated mice
same,mice with high lung metastatic burden,4T1 tumors; [9],no mice with a high metastatic burden
same,mice with negligible lung metastases,4T1 tumors; [9],7/12
same,tumor histology,4T1 tumors; ad libitum PND-1186,"necrotic regions at the tumor core, increased TUNEL staining, and decreased leukocyte infiltrate"
same,FAK pY397 and p130Cas pY410 phosphorylation in primary tumors,4T1 tumors; ad libitum oral,sufficient to inhibit both FAK pY397 and p130Cas pY410 phosphorylation
same,mice with negligible to moderate lung metastatic burden,4T1 tumors; ad libitum oral,13/15
same,pY118 paxillin phosphorylation in tumors,4T1 tumors; ad libitum oral,inhibited pY118 paxillin phosphorylation
same,"pY416 Src, pY402 Pyk2, pS473 Akt, pT308 Akt phosphorylation in tumors",4T1 tumors; ad libitum oral,"not pY416 Src nor pY402 Pyk2, pS473 Akt, or pT308 Akt phosphorylation"
same,spleen size,4T1 tumors; ad libitum oral,normal size
same,inhibition of final tumor mass,"4T1 tumors; ad libitum oral, Day 22",> 1.8 fold
same,toxicity or weight loss,"4T1 tumors; ad libitum oral, Day 22",without toxicity or weight loss
same,tumor-associated inflammatory cell infiltration and splenomegaly,4T1 tumors; mice with syngeneic 4T1 tumors,significantly decreased tumor-associated inflammatory cell infiltration and splenomegaly
same,tumor-associated splenomegaly,"4T1 tumors; mouse, in vivo",reduced tumor-associated splenomegaly
same,anti-tumor and anti-metastatic effects,4T1 tumors; [10],significant anti-tumor and anti-metastatic effects
same,tolerability of oral dosing,4T1 tumors; [10],"without animal morbidity, death or weight loss"
same,spleen appearance,4T1 tumors; tumor-bearing PND-1186-treated mice,"healthy and indistinguishable from non-treated, non-tumor bearing mice"
